Measurements reported in patent US9133235B2, “Macrocyclic antagonists of the motilin receptor for treatment of gastrointestinal dysmotility disorders” (Ocera Therapeutics, Inc., priority 2006, dated 2015).
Like-named read-outs stand apart in the source and are kept apart here.

Experiments:
[1] = Plasma concentrations of compound 552 in beagle dogs during the CID study; format: in vivo; conditions: male, dog, iv; for AUC(0-t): read-out: average AUC0-t (converted)
Procedure: The test article No. 2 (compound 552) was intravenously infused via an implanted catheter over 45 minutes to all the animals in Group 4 four days before the start of TA1 (irinotecan) treatment and throughout the 28-day study period. […] The daily dosage (i.e. 5.0, 15.0 and 5.0 mg/kg/day for Groups 2 to 4 respectively) was administered by two equal doses (i.e. 2.5, 7.5 and 2.5 mg/kg/occasion for Groups 2 to 4 respectively) which were separate by at least 6 h. Each dose was infused at a dose volume of 10 mL/kg/h. The vehicle for compound 552 was administered to all dogs in Group 5 by following the same dosing procedures and regimen for compound 552 administration for 23 days (from Day 6 to Day 28). The actual volume infused was calculated and adjusted based on the most recent practical body weight of each animal. The syringes/bags were changed at appropriate intervals as necessary and the weights recorded prior to the start and at the end of the infusion.
Body weights were recorded for all animals once prior to group assignment, and approximately one week prior to initiation of treatment. Body weights were recorded for all animals up to 1 day prior to dosing and twice weekly thereafter during the treatment/observation periods, as well as terminally prior to necropsy (fasted). Food consumption was measured daily during the week prior to treatment and throughout the treatment/observation periods. A series of blood samples (approximately 2.0 mL each) were removed from each dog in Groups 2 and 3 after the first (am) infusion on the first day of treatment with compound 552 and after the second (pm) infusion on the last day of treatment with compound 552. (Note: the second (pm) infusion on the first day of treatment with compound 552 was performed after completion of the last blood sampling). For this purpose, each dog was bled by venipuncture and the samples collected into tubes containing the anticoagulant, K2 EDTA. Tubes were placed on wet ice pending processing. On each occasion, samples were collected prior to the start of infusion, 5, 15, 30, 45, 50, 65, 95, 135 minutes, 3 and 6 hours after the start of infusion of compound 552. Following collection, the samples were centrifuged at approximately 1500×g, approximately 4° C., for at least 10 minutes and the resulting plasma recovered and dispensed into two aliquots and stored frozen (at approximately −80° C.) pending shipment.
Plasma concentrations of compound 552 in male beagle dogs receiving low and high intravenous doses of compound 552 as part of the above experiment were determined. Plasma samples were prepared for analysis by solid phase extraction and analyzed by LC-MS/MS. […] The average AUC0-t was similar on the first (78,233 ng·min/mL) and last day (83,047 ng·min/mL) of dosing for the low dose group (2.5 mg/kg/occasion) and was proportionally higher on the first day (246,073 ng·min/mL) of dosing for the high dose group (7.5 mg/kg/occasion).

[2] = test system: irinotecan-induced CID in dogs; assay: Dog model of chemotherapy-induced diarrhea; format: in vivo; conditions: FIG. 19
Excerpt: The objective of this study was to determine the efficacy of representative macrocyclic compounds of the present invention in chemotherapy-induced diarrhea (CID) following intravenous administration to the male beagle dog (Canis familiaris) for up to 32 days. Comparison with existing agents utilized for this condition, octreotide and loperamide, was an additional objective.
Twenty-one (21) male naïve Beagle dogs were randomly assigned to 7 groups and treated as follows:
The test compounds, controls and comparators were prepared at appropriate intervals. All formulations intended for administration to the test animals were stored refrigerated at 2-8° C. Irinotecan was obtained as a sterile solution for intravenous injection containing irinotecan hydrochloride trihydrate at a concentration of 20 mg/mL, ready to use. The irinotecan formulation for dosing the animals (0.5 mg/mL) in Group 1 (Cycles 1 and 2 only) was achieved by dilution of 20 mg/mL formulation with 5% dextrose for injection, USP. […]
A total of 21 males and 2 spare males were obtained from a commercial supplier (for example Marshall BioResources, North Rose, N.Y.) with ages 5 to 7 months old at onset of treatment and weights 6-9 kg at onset of treatment. […] Temperature and relative humidity were monitored continuously and recorded 4 times daily. […]

CCC[C@@H]1NC(=O)[C@@H](C(C)C)NC(=O)[C@@H](Cc2ccc(O)c(Cl)c2)N[C@@H](C)COc2ccccc2CCCNC1=O [Compound 552]
Cmax ([1]; 2.5 mg/kg, 2.5 mg/kg 45-min infusion, first day of treatment): ~1500 ng/mL
Cmax ([1]; 2.5 mg/kg, 2.5 mg/kg 45-min infusion, last day of treatment): ~1800 ng/mL
AUC(0-t) ([1]; 2.5 mg/kg, low dose group 2.5 mg/kg/occasion, first day): 1300 ng·h/mL
AUC(0-t) ([1]; 2.5 mg/kg, low dose group 2.5 mg/kg/occasion, last day): 1380 ng·h/mL
Cmax ([1]; 7.5 mg/kg, 7.5 mg/kg 45-min infusion, first day of treatment): ~3400 ng/mL
Cmax ([1]; 7.5 mg/kg, 7.5 mg/kg 45-min infusion, last day of treatment): ~5000 ng/mL
AUC(0-t) ([1]; 7.5 mg/kg, high dose group 7.5 mg/kg/occasion, first day): 4100 ng·h/mL
AUC(0-t) ([1]; 7.5 mg/kg, high dose group 7.5 mg/kg/occasion, last day, one animal with particularly high AUC): 6350 ng·h/mL
efficacy in the treatment of irinotecan-induced CID ([2]; intravenous infusion, versus the current standard of care (octreotide, loperamide)): superior efficacy
onset and duration of action in irinotecan-induced CID ([2]; versus the current standard of care): quicker onset and longer duration of action
